Data reported in paper doi:10.64898/2025.12.30.696991 (bioRxiv, 2026).
Read-outs that look alike come from different tables or passages of the source.

Experiments:
[1] = system: intracellular MDR S. Typhimurium (ATCC 700408); experiment: Intracellular gentamicin protection assay, MDR S. Typhimurium in RAW 264.7 macrophages; assay type: cell-based, Salmonella enterica serovar Typhimurium; settings: for IC50: Salmonella enterica, RAW264.7, Table 2, intracellular burden 50% in RAW 264.7; for MDR Selectivity: Table 2, LC50 / IC50; for difference of IC50 between susceptible and MDR S. Typhimurium: defined as 2-fold difference MDR IC50 / Susc IC50
Description: (§1) RAW 264.7 cells were seeded at 3×10^4 cells/well in a 96-well plate and maintained at 37°C for 20 hours. A single colony of susceptible or MDR S. Typhimurium was inoculated and cultured overnight in nutrient broth and diluted to obtain a log-phase culture stock with an adjusted optical density (OD600) of 0.6, equivalent to a concentration of 3×10^8 CFU/mL (determined by a prior colony forming units (CFU) assay). The bacterial stock solution was resuspended in antibiotic-free DMEM supplemented with 2% FBS and further diluted to obtain a bacterial concentration of 3×10^6 CFU/mL. Cell media was aspirated and replaced with 100 μL of bacteria culture in DMEM resulting in a multiplicity of infection (MOI) of 10. The cells underwent infection for two hours or 30 minutes at 37°C with susceptible or MDR bacteria, respectively. This differential infection incubation period was based on strain-specific infectivity potential. […] Media was aspirated from the wells and replaced with DMEM (2% FBS) containing 100 μg/mL gentamicin for one hour at 37°C to eliminate extracellular bacteria. Following this step, cells were washed once with media and treated for 22 hours with analogs at varying concentrations (0.1 – 5 μM) in DMEM (2% FBS, no pen/strep) containing 10 μg/mL gentamicin to suppress extracellular bacterial growth. AR-12 treated, uninfected, and DMSO-vehicle treated cells were included as controls. Post treatment, cells were washed with PBS and lysed with 0.1% Triton-X100, a concentration sufficient to disrupt host cells while preserving bacterial integrity. The lysates containing intracellular bacteria were serially diluted and enumerated by using drop-plate assay as described previously.([27]) Agar plates were incubated overnight at 37°C before CFU from each dilution were counted.
Supplemental Figure 2: Evaluating lead compound efficacy against MDR S. Typhimurium. A) Schematic illustrating gentamicin protection assay. Day 0 RAW 264.7 macrophages are seeded into 96-well plate and STM culture is inoculated. Day 1: RAW 264.7 cells are infected with STM at an MOI of 10 for 30 min, washed, then treated with gentamicin for 1hr to remove extracellular bacteria. AR-12 analogs added to infected cells for 22hr incubation. Day 2: RAWs are washed, lysed, diluted and then dropped onto agar plates. Day 3: colony forming units (CFUs) counted. B) Dose effect curves of intracellular MDR S. Typhimurium viability from RAW 264.7 macrophages after 22hr treatment with hit compounds. CFUs normalized to untreated controls. Parental compound AR-12 included for comparison.

[2] = system: planktonic MDR S. Typhimurium (ATCC 700408); experiment: Direct effect on planktonic MDR bacteria (optical density 600 nm); assay type: cell-based, Salmonella enterica serovar Typhimurium; settings: Salmonella enterica, Table 2, OD 600 nm
Description: (§2) A single colony of susceptible or MDR bacteria was inoculated into nutrient broth and incubated overnight at 37°C in an orbital shaker set at 200 rpm. The overnight culture was sub-cultured (1:100) in fresh medium to obtain log-phase bacterial growth after an additional 3 hr incubation at 37°C and further adjusted to obtain a bacterial stock solution with an absorbance value of 0.6 at 600 nm, equivalent to a concentration of 3×10^8 CFU/mL. The bacterial stock was diluted with nutrient broth to obtain 3×10^4 CFU/well in a 96 well plate. Next, 10 μL of each analog were added to yield a total volume of 100 μL /well with a final concentration of 20 μM. Drug-free and bacteria-free wells were used as controls. The plate was incubated at 37°C for 22 hr. Percent bacterial viability was determined using optical density measurements at 600 nm, subtracting out bacteria free absorbance (background) and normalizing to a DMSO vehicle control. Bacterial viability was plotted against increasing drug concentration to obtain the 50% minimum inhibitory concentration (MIC50), defined as the drug concentration resulting in 50% bacterial viability.

[3] = system: planktonic susceptible S. Typhimurium (ATCC 700720); experiment: Direct effect on planktonic susceptible bacteria (optical density 600 nm); assay type: cell-based, Salmonella enterica serovar Typhimurium; settings: Salmonella enterica
Description: as §2

in vitro = assay type: cell-based
Description: Cell proliferation and viability in the presence of the analogs was tested in the macrophage cell line RAW 264.7 using a 3-(4,5-dimethylthiazol-2-yl)-2,5-diphenyl-2H-tetrazolium bromide (MTT) assay. Cells were seeded at 3×10^4 cells/well in 96 well plates in DMEM (10% FBS, 1% pen/strep). […] DMSO vehicle was utilized as a control, as all the drugs were reconstituted from DMSO stocks. After 24 hr treatment, media was replaced with 100 μL of 0.6 mg/mL MTT solution and the cells were incubated at 37°C until formazan crystals formed. The MTT solution was then replaced with 100 μL of isopropanol, to dissolve the formazan crystals. Cell viability was determined by measuring absorbance at 560 nm of drug treated cells normalized to DMSO vehicle controls. The absorbance at 670 nm was used as a background correction. Cell viability was plotted against increasing drug concentration to obtain the 50% lethal concentration (LC50), defined as the drug concentration resulting in 50% cell viability.

[4] = system: intracellular susceptible S. Typhimurium (ATCC 700720); experiment: Intracellular gentamicin protection assay, susceptible S. Typhimurium in RAW 264.7 macrophages; assay type: cell-based, Salmonella enterica serovar Typhimurium; settings: for selectivity (selectivity indices): LC50 / IC50, strain not specified; for IC50: Salmonella enterica; for Selectivity: LC50 / IC50, susceptible S. Typhimurium
Description: as §1

[5] = Table 1, planktonic susceptible S. Typhimurium viability 50% by optical density, 22 hr, read-out: MIC50
[6] = Table 2, planktonic Salmonella, OD 600 nm, read-out: Susc. MIC50
[7] = RAW264.7, 22 h, Table 1, concentration at which intracellular susceptible S. Typhimurium burden is 50% in RAW 264.7 macrophages, 22 h treatment, read-out: IC50
[8] = RAW264.7, Table 2, intracellular burden 50% in RAW 264.7, read-out: Susc. IC50

## NCC(=O)Nc1ccc(-n2nc(C(F)(F)F)cc2-c2ccc3c(ccc4ccccc43)c2)cc1 [AR-12, reference compound]
[1]
  IC50: 340 nM
  MDR Selectivity: 24.4
[2]
  MIC50: > 20 µM
[3]; [5]
  MIC50: > 20 µM
[3]; [6]
  MIC50: > 20 µM
In vitro; Table 1, RAW 264.7 viability reduced by 50%, MTT assay, 24 hr, 1–100 μM, read-out: LC50
  CC50 at 24 h: 8000 nM
In vitro; Table 2, RAW 264.7 viability 50%, colorimetric assay, extended up to 500 μM, read-out: LC50
  CC50 at 24 h: 8300 nM
[4]
  selectivity (selectivity indices): around 20
[4]; [7]
  IC50: 420 nM
[4]; [8]
  IC50: 400 nM
[4]; Table 1
  Selectivity: 19.8

## NC1CCN(c2ccc(-n3nc(C(F)(F)F)cc3C3CCCCC3)cc2)CC1 [Compound 324]
[1]
  IC50: 160 nM
  MDR Selectivity: 118
  difference of IC50 between susceptible and MDR S. Typhimurium: strongly different
[2]
  MIC50: > 20 µM
[3]; [5]
  MIC50: > 20 µM
[3]; [6]
  MIC50: > 20 µM
In vitro; mouse, LC50
  CC50 at 24 h: 18800 nM
[4]; [7]
  IC50: 80 nM
[4]; [8]
  IC50: 80 nM
[4]; Table 1
  Selectivity: 244

## N#Cc1ccc(CN2CCC(Nc3ccc(-n4nc(C(F)(F)F)cc4C4CCCCC4)cc3)CC2)cc1 [Compound 323]
[1]
  IC50: 200 nM
  MDR Selectivity: 160
  difference of IC50 between susceptible and MDR S. Typhimurium: strongly different
[2]
  MIC50: > 20 µM
[3]; [5]
  MIC50: > 20 µM
[3]; [6]
  MIC50: > 20 µM
In vitro; mouse, LC50
  CC50 at 24 h: 32000 nM
[4]; [7]
  IC50: 100 nM
[4]; [8]
  IC50: 100 nM
[4]; Table 1
  Selectivity: 333

## FC(F)(F)c1cc(C2CCCCC2)n(-c2ccc(N3CCC(NCc4ccccc4)C3)cc2)n1 (centres unmarked) [Compound 364]
[1]
  IC50: 120 nM
  MDR Selectivity: 291
[2]
  MIC50: > 20 µM
[3]; [5]
  MIC50: > 20 µM
[3]; [6]
  MIC50: > 20 µM
In vitro; mouse, LC50
  CC50 at 24 h: 35000 nM
[4]; [7]
  IC50: 130 nM
[4]; [8]
  IC50: 130 nM
[4]; Table 1
  Selectivity: 269

## FC(F)(F)c1cc(C2CCCCC2)n(-c2ccc(NC3CCN(Cc4ccccc4)CC3)cc2)n1 [Compound 381]
[1]
  IC50: 140 nM
  MDR Selectivity: 211
[2]
  MIC50: > 20 µM
[3]; [5]
  MIC50: > 20 µM
[3]; [6]
  MIC50: > 20 µM
In vitro; mouse, LC50
  CC50 at 24 h: 28600 nM
[4]; [7]
  IC50: 110 nM
[4]; [8]
  IC50: 110 nM
[4]; Table 1
  Selectivity: 260

## Fc1cccc(CN2CCC(Oc3ccc(-n4nc(C(F)(F)F)cc4C4CCCCC4)cc3)CC2)c1 [Compound 372]
[1]
  IC50: 170 nM
[2]
  MIC50: > 20 µM
[3]; [5]
  MIC50: > 20 µM
[3]; [6]
  MIC50: > 20 µM
[4]
  selectivity (selectivity indices): > 2000
[4]; [7]
  IC50: 130 nM
[4]; [8]
  IC50: ~130 nM
[4]; Table 1
  Selectivity: >769

## FC(F)(F)c1cc(C2CCCCC2)n(-c2ccc(OC3CCN(Cc4ccccc4)CC3)cc2)n1 [Compound 371]
[1]
  IC50: 110 nM
  MDR Selectivity: 790
[2]
  MIC50: > 20 µM
[3]; [5]
  MIC50: > 20 µM
[3]; [6]
  MIC50: > 20 µM
In vitro; mouse, LC50
  CC50 at 24 h: 90200 nM
[4]; [7]
  IC50: 140 nM
[4]; [8]
  IC50: 140 nM
[4]; Table 1
  Selectivity: 644

## NCC(=O)Nc1ccc(-n2nc(C(F)(F)F)cc2C2CCCCC2)cc1 [Compound 341]
[1]
  IC50: 100 nM
  MDR Selectivity: 318
[2]
  MIC50: > 20 µM
[3]; [5]
  MIC50: > 20 µM
[3]; [6]
  MIC50: > 20 µM
In vitro; mouse, LC50
  CC50 at 24 h: 31800 nM
[4]; [7]
  IC50: 80 nM
[4]; [8]
  IC50: 80 nM
[4]; Table 1
  Selectivity: 398

## N#Cc1ccc(CNC2CCN(c3ccc(-n4nc(C(F)(F)F)cc4C4CCCCC4)cc3)C2)cc1 (centres unmarked) [Compound 365]
[1]
  IC50: 370 nM
  MDR Selectivity: 115
  difference of IC50 between susceptible and MDR S. Typhimurium: strongly different
[2]
  MIC50: > 20 µM
[3]; [5]
  MIC50: > 20 µM
[3]; [6]
  MIC50: > 20 µM
In vitro; mouse, LC50
  CC50 at 24 h: 42700 nM
[4]; [7]
  IC50: 150 nM
[4]; [8]
  IC50: 150 nM
[4]; Table 1
  Selectivity: 285

## Fc1cccc(CN2CCC(Nc3ccc(-n4nc(C(F)(F)F)cc4C4CCCCC4)cc3)CC2)c1 [Compound 322]
[1]
  IC50: 120 nM
  MDR Selectivity: 372
[2]
  MIC50: > 20 µM
[3]; [5]
  MIC50: > 20 µM
[3]; [6]
  MIC50: > 20 µM
In vitro; mouse, LC50
  CC50 at 24 h: 43700 nM
[4]; [7]
  IC50: 140 nM
[4]; [8]
  IC50: 140 nM
[4]; Table 1
  Selectivity: 324

## FC(F)(F)c1cc(C2CCCCC2)n(-c2ccc(OC3CCNCC3)cc2)n1 [Compound 370]
[1]
  IC50: 60 nM
  MDR Selectivity: 269
[2]
  MIC50: > 20 µM
[3]; [5]
  MIC50: > 20 µM
[3]; [6]
  MIC50: > 20 µM
In vitro; mouse, LC50
  CC50 at 24 h: 17200 nM
[4]; [7]
  IC50: 80 nM
[4]; [8]
  IC50: 80 nM
[4]; Table 1
  Selectivity: 229

## N#Cc1ccc(CN2CCC(Oc3ccc(-n4nc(C(F)(F)F)cc4C4CCCCC4)cc3)CC2)cc1 [Compound 373]
[1]
  IC50: ~130 nM
[2]
  MIC50: > 20 µM
[3]; [5]
  MIC50: > 20 µM
[3]; [6]
  MIC50: > 20 µM
[4]
  selectivity (selectivity indices): > 2000
[4]; [7]
  IC50: 130 nM
[4]; [8]
  IC50: ~130 nM
[4]; Table 1
  Selectivity: >769

## FC(F)(F)c1cc(C2CCCCC2)n(-c2ccc(OC3CCN(Cc4ccccc4)C3)cc2)n1 (centres unmarked) [Compound 378]
[1]
  IC50: 180 nM
[2]
  MIC50: > 20 µM
[3]; [5]
  MIC50: > 20 µM
[3]; [6]
  MIC50: > 20 µM
[4]
  improvement in selectivity over AR-12: approximately 100 fold
[4]; [7]
  IC50: 310 nM
[4]; [8]
  IC50: 310 nM
[4]; Table 1
  Selectivity: >322
